The record followed here is ChEMBL document CHEMBL1201862, “PubChem BioAssay data set” (2004).

The structures appear in SMILES notation. Activity calls are given as the source filed them. Bounds are passed on as bounds.

In assay [1] the target is T1, Trace amine-associated receptor 1 (Homo sapiens, UniProt Q96RJ0).
T1 sequence (Q96RJ0 whole entry): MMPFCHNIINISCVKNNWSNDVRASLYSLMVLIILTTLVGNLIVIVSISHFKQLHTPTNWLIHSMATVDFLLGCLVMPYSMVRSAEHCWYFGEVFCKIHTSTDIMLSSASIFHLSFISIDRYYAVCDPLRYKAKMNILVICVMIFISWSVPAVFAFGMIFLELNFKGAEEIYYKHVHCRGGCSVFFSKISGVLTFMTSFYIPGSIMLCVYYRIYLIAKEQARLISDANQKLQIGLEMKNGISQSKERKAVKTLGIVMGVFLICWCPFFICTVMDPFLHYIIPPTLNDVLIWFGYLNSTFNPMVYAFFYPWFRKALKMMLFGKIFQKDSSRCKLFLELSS
Description: Fluorescence-based cell-based high throughput dose response assay to identify agonists of the human trace amine associated receptor 1 (TAAR1). The format is functional.

Assay [2] in a line: cells. In kind it is functional, cell-based.
Assay [3] concerns the target T1, Trace amine-associated receptor 1. Put plainly: Counterscreen for agonists of the human trace amine associated receptor 1 (hTAAR1): Fluorescence-based cell-based high throughput dose response assay to identify hTAAR1 agonist that also desensitize TAAR1 receptor response. The format is functional. Background: Counterscreens check selectivity or assay interference.

Assay [4] can be described thus: cells. In kind it is functional, cell-based. The source holds these as a separate data set.
The target of a further assay is Albumin (Bos taurus, UniProt P02769). Description: Counterscreen for inhibitors of T-cell receptor (TCR)-CD3 interaction: Fluorescence-based biochemical high throughput dose response assay to identify inhibitors of T-cell receptor (TCR)-CD3 interaction using a TAMRA-labeled BSA probe. The format is functional.
Sequence of Albumin (P02769 whole entry): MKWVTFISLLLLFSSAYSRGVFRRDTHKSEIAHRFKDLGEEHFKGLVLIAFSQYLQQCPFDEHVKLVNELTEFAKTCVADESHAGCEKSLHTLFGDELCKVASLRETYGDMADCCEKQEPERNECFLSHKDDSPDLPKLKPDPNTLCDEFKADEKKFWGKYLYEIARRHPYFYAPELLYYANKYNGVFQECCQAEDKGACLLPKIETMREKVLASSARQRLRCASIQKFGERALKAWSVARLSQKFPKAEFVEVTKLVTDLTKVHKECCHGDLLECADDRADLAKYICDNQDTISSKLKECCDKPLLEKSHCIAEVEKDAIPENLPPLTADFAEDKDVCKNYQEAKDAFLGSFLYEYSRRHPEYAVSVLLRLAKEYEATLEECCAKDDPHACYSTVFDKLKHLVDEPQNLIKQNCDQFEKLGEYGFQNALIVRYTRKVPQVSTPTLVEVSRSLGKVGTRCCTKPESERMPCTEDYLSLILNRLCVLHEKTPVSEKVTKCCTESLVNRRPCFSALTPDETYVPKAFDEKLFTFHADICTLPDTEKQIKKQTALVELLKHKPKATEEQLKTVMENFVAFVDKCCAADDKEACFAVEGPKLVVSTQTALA
The target of a further assay is T2, Aminopeptidase N (Plasmodium falciparum FcB1/Columbia, UniProt O96935).
T2 sequence (O96935 whole entry): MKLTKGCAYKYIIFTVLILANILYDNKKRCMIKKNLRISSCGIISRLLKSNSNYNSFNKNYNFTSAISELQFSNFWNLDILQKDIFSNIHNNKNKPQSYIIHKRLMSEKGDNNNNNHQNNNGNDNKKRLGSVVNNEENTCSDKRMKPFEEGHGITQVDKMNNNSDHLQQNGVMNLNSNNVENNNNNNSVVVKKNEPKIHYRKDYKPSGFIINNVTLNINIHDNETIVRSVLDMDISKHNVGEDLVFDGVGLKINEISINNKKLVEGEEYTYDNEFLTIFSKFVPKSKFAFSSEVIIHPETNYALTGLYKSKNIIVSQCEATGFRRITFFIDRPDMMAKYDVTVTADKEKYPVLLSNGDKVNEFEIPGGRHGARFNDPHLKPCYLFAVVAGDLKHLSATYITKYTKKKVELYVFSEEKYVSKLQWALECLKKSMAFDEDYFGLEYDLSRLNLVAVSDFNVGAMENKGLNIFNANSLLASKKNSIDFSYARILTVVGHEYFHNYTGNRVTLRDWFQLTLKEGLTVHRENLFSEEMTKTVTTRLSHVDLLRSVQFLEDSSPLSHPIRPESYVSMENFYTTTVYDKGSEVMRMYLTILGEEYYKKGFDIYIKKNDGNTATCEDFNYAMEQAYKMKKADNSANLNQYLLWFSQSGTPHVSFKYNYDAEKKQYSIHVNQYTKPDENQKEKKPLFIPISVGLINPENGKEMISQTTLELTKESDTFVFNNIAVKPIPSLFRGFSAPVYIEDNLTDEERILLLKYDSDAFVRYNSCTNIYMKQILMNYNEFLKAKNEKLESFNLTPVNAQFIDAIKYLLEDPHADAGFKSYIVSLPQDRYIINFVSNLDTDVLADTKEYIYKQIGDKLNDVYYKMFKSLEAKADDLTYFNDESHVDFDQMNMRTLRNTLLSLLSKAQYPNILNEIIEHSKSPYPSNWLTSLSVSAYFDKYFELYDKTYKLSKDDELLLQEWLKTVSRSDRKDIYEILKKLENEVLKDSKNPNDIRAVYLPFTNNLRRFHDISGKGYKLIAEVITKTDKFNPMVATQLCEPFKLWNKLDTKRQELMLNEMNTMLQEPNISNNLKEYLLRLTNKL
Put plainly: malaria alanyl aminopeptidase activity blockers – biochemical, fluorogenic H-Leu-NHMec substrate, 1536-well (AID 1445). Set-up: species or system Plasmodium falciparum 3D7, 3D7.

The subject of the next assay is Streptococcus. Description: GAS UMAA2166 growth inhibition – luminescence, BacTiterGlo, counter-screen for streptokinase expression inhibitor project, dose response (AID 1915).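 Further: potency for reduction of bacterial viability or growth.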 In kind it is functional, organism-based.
In assay [5] the test system is Streptococcus sp. 'group A'. Put plainly: Streptococcus pyogenes SK(-)GAS viability under kanamycin – luminescence, BacTiterGlo, confirmation, counter-screen for streptokinase expression inhibitor project, dose response (AID 1900). In kind it is functional, organism-based.
Assay [6] in a line: HGIII-sPLA2 enzyme inhibition potency – biochemical, QFRET, IC50, dose response (AID 743457).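 Further: green fluorescence rise as the enzyme cleaves BODIPY PC-A2 in liposomes.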
Assay [7] is described as follows: cells. The format is functional.
For assay [8], the target named is T3, Mannose-6-phosphate isomerase (Homo sapiens, UniProt P34949).
T3 sequence (P34949 whole entry): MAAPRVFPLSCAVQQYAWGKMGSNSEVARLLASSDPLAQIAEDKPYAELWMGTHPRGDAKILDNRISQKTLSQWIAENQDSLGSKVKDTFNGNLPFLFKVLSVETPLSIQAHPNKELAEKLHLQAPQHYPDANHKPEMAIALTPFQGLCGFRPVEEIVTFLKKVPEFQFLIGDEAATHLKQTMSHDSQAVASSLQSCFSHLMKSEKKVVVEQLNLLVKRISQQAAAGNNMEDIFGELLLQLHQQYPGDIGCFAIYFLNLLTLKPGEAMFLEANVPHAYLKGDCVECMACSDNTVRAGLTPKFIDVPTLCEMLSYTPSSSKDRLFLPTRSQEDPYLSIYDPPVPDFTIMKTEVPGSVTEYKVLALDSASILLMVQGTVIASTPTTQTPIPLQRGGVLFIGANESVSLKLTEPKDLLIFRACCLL
Description: MPI inhibition at elevated mannose 6-phosphate – biochemical, fluorescence intensity, high mannose 6-phosphate, primary screen (AID 1220).

A short description of assay [9]: NIH3T3 cell viability loss – ATP luminescence, mouse fibroblasts, counter-screen, dose response (AID 2010).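 Further: cells exposed to compound for about 90 hours before reading.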 In kind it is functional, cell-based.
A short description of assay [10]: Trypanosoma cruzi growth suppression in host cells – NIH3T3 host cells, beta-gal luminescence, confirmation (AID 2044).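 Further: intracellular parasites grown in NIH/3T3 mouse fibroblasts as host cells; luminescent beta-galactosidase reporter signal from transgenic T. cruzi replicating inside host cells; inhibitors lower the luminescence signal.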 In kind it is functional, cell-based.

Take `O=C(Cc1nnc(NC(=O)Nc2ccccc2)s1)Nc1ccccc1`: the EC50 in assay [1] was > 0.0015 µM (active); in “cells [2]”, > 29.9 µM (inactive). Besides, the concentration for half-maximal inhibition (IC50) was > 1.11 µM (active) in [3] and > 29.9 µM (inactive) in “cells [4]”.

For the compound `O=C(CP(=O)(c1ccccc1)c1ccccc1)N/N=C/c1cc(Br)cc(Br)c1O`, the IC50 at Albumin was > 94.2 µM (inactive); at Aminopeptidase N it was 12.4 µM (active). Further, the values for the 50% effective concentration (EC50) (with Streptococcus; in assay [5]) were 2.32 µM (active) and 0.8 µM (active), respectively.

Take `COc1ccc(NC(=O)NNC(=O)c2ccc3ccccc3c2O)cc1OC`: the results for the IC50 (at Albumin; in assay [6]) were > 94.1 µM (inactive) and > 122 µM (inactive), respectively.

For `CN(CCc1ccccc1)Cc1c[nH]c2ccccc12`, the concentration for a half-maximal effect (EC50) in assay [1] is 1.05 µM (active); in “cells [2]”, > 29.9 µM (inactive). In addition, the IC50 in [3] is 13.2 µM (inactive); in the assay “cells [4]”, > 29.9 µM (inactive).

For the compound `Cn1ccc2c(N3CCCCCCC3)cc3c(c21)C1CCC3O1` (configuration not stated), the IC50 in assay [6] is > 122 µM (inactive).

For `C=CCNC(S)=NNc1nc(O)c2c(n1)-c1ccccc1CC21CCCCC1`, the IC50 in assay [6] is 73.1 µM (inactive).

With `CC1CCCN(CCC(=O)c2ccc(Br)cc2)C1` (configuration not stated), the EC50 is 1.67 µM (active) in assay [1] and > 29.9 µM (inactive) in “cells [2]”. Further, the concentration for half-maximal inhibition (IC50) in “cells [7]” is 15.2 µM (active); in [3] it was 20.1 µM (inactive); in assay [8], > 50 µM (not active); in the assay “cells [4]”, > 29.9 µM (inactive).

Consider `CC(C)c1cc(C(=O)NN=C(S)NCc2ccco2)c(O)c(C(C)C)c1`, for which the IC50 in assay [6] was 18.8 µM (inactive).

As to `Cc1c(Cl)cccc1Nc1nc(NCCO)c2ccccc2n1`, the EC50 in [1] was 2.94 µM (active); in the assay “cells [2]” it was > 29.9 µM (inactive); in [9], > 60 µM (not active); in assay [10], 1.2 µM (active). Moreover, the IC50 in assay [3] is 6.83 µM (active); in “cells [4]” it was > 29.9 µM (inactive).

For `Cc1ccc(N2CN(CCc3ccccc3)CN=C2S)cc1`, the values for the concentration giving a half-maximal response (EC50) (in assay [1]; in “cells [2]”) were 1.16 µM (active) and > 29.9 µM (inactive), respectively. Besides, the IC50 in assay [3] is 7.74 µM (active); in “cells [4]” it was > 29.9 µM (inactive).

In the case of `O=C(CCNC(=O)c1ccc(Br)cc1)NNC(=O)c1ccccc1O`, the IC50 at Albumin is > 94.1 µM (inactive).

For `O=c1nc(N2CCCCC2)nc(Nc2ccccc2)[nH]1`, the concentration for a half-maximal effect (EC50) in assay [1] is 3.44 µM (active). Further, the figures for the concentration for half-maximal inhibition (IC50) (at Aminopeptidase N; in [3]) were 51.9 µM (active) and 4.65 µM (active), respectively.

Take `CCCCNC(=S)N/N=C/c1cccc(OCC)c1O`: the IC50 in [6] is > 122 µM (inactive).

Consider `COc1ccc(-c2cc(C3CCN(CC(O)C(F)(F)F)CC3)[nH]n2)cc1` (configuration not stated), for which the results for the EC50 (in assay [1]; in the assay “cells [2]”) were 3.52 µM (active) and > 29.9 µM (inactive), respectively. Also, the IC50 in assay [3] was 7.6 µM (active); in the assay “cells [4]”, > 29.9 µM (inactive).

By EC50 is commonly meant the concentration at which the effect is half-maximal. Usually IC50 stands for the concentration that gives 50% inhibition.
